Measurements taken from ChEMBL document CHEMBL1122581, “Antiviral activity of C-5 substituted tubercidin analogues” (1984).
Values after ≈ are worked out from the molar mass of the structure shown.

Tests used:
Vaccinia virus [1] = assay: Compound was tested for the concentration required to reduce vaccinia virus induced cytopathogenicity by 50% in primary rabbit kidney cell cultures; assay type: functional; conditions: Orthopoxvirus vaccinia
Vaccinia virus [2] = assay: Concentration required to reduce vaccinia virus induced cytopathogenicity by 50% in primary rabbit kidney cell cultures.; assay type: functional; conditions: Orthopoxvirus vaccinia

SMILES | MIC (Vaccinia virus [1]) | MIC (Vaccinia virus [2])
Nc1ncnc2c1ncn2C[C@@H](O)CO | 70 µg/mL (≈ 335 µM) | –
Nc1ncnc2c1cc(Br)n2C1O[C@H](CO)[C@@H](O)[C@H]1O (some centres undefined) | – | 300 µg/mL (≈ 869 µM)
Nc1ncnc2c1c(Br)c(Br)n2C1O[C@H](CO)[C@@H](O)[C@H]1O (some centres undefined) | – | 20 µg/mL (≈ 47.2 µM)
Nc1ncnc2c1c(CCCO)cn2C1O[C@H](CO)[C@@H](O)[C@H]1O (some centres undefined) | – | 2 µg/mL (≈ 6.17 µM)
Nc1ncnc2c1c(/C=C/Br)cn2C1O[C@H](CO)[C@@H](O)[C@H]1O (some centres undefined) | – | > 1 µg/mL
Nc1ncnc2c1c(Cl)c(Cl)n2C1O[C@H](CO)[C@@H](O)[C@H]1O (some centres undefined) | – | > 40 µg/mL
N#C/C=C/c1cn(C2O[C@H](CO)[C@@H](O)[C@H]2O)c2ncnc(N)c12 (some centres undefined) | – | 0.7 µg/mL (≈ 2.21 µM)
CC(O)c1cn(C2O[C@H](CO)[C@@H](O)[C@H]2O)c2ncnc(N)c12 (some centres undefined) | – | 0.7 µg/mL (≈ 2.26 µM)
COC(C)c1cn(C2O[C@H](CO)[C@@H](O)[C@H]2O)c2ncnc(N)c12 (some centres undefined) | – | 0.7 µg/mL (≈ 2.16 µM)
C/C=C/Cc1cn(C2O[C@H](CO)[C@@H](O)[C@H]2O)c2ncnc(N)c12 (some centres undefined) | – | 0.7 µg/mL (≈ 2.19 µM)
CCCCc1cn(C2O[C@H](CO)[C@@H](O)[C@H]2O)c2ncnc(N)c12 (some centres undefined) | – | > 40 µg/mL
Nc1ncnc2c1c(Br)cn2[C@@H]1O[C@H](CO)[C@@H](O)[C@H]1O | – | 0.2 µg/mL (≈ 0.579 µM)
Nc1nccc2c1ncn2[C@@H]1C[C@H](CO)[C@H](O)C1O (some centres undefined) | – | 0.1 µg/mL (≈ 0.378 µM)
Nc1ncnc2c1c(Cl)cn2[C@@H]1O[C@H](CO)[C@@H](O)[C@H]1O | – | > 1 µg/mL
Nc1ncnc2c1c(I)cn2[C@@H]1O[C@H](CO)[C@@H](O)[C@H]1O [IODOTUBERCIDIN] | – | 0.07 µg/mL (≈ 0.179 µM)
NC(=O)c1ncn([C@@H]2O[C@H](CO)[C@@H](O)[C@H]2O)n1 [RIBAVIRIN] | – | 10 µg/mL (≈ 40.9 µM)
NC(=O)c1cn([C@@H]2O[C@H](CO)[C@@H](O)[C@H]2O)c2ncnc(N)c12 [SANGIVAMYCIN] | – | 0.02 µg/mL (≈ 0.0647 µM)
N#Cc1cn([C@@H]2O[C@H](CO)[C@@H](O)[C@H]2O)c2ncnc(N)c12 [TOYOCAMYCIN] | – | > 0.01 µg/mL
Nc1ncnc2c1ccn2[C@@H]1O[C@H](CO)[C@@H](O)[C@H]1O [TUBERCIDIN] | – | 0.02 µg/mL (≈ 0.0751 µM)
